Laboratory results as given in US20100305120A1, “COMPOUNDS FOR TREATING MUSCULAR DYSTROPHY” (BIOMARIN IGA LIMITED, priority 2008, published 2010).

tested on: Utrophin A promoter linked to a luciferase reporter gene; experiment: Luciferase reporter assay (murine H2K cells), H2K/mdx/Utro A reporter cell line; type: cell-based; details: 48 h; test compound concentration 10 μM; mdx mouse H2K Utrophin A reporter cells; read-out: Activity (luciferase level relative to control)
Summary of the method: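 Immortalized mdx mouse H2K myoblasts stably carrying ~5 kb utrophin A promoter–luciferase construct, kept at 33 °C, 10% CO2. Compound added 24 h after plating, typically at 10 μM final, for 48 h; luciferase measured by cell lysis and luminescence.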

Question: CCN(CC)S(=O)(=O)c1ccc(Cn2nc(C(=O)Nc3ccc(N4CCCCC4)cc3)c3ccccc32)cc1 [Compound 10, 1-(4-(N,N-diethylsulfamoyl)benzyl)-N-(4-(piperidin-1-yl)phenyl)-1H-indazole-3-carboxamide] was tested. Which activity at 10 µM did it give?
Answer: 201 to 300%

Question: How did the activity at 10 µM turn out when COc1cccc(OCc2ccc(Cn3nc(NC(=O)NCc4ccccc4F)c4ccccc43)cc2)c1 [Compound 28, 1-(2-fluorobenzyl)-3-(1-(4-((3-methoxyphenoxy)methyl)benzyl)-1H-indazol-3-yl)urea] was run?
Answer: 201 to 300%

Question: For CC(=O)Nc1ccc(NC(=O)c2nn(Cc3ccc(C(F)(F)F)cc3)c3ccccc23)cc1 [Compound 109, N-(4-acetamidophenyl)-1-(4-(trifluoromethyl)benzyl)-1H-indazole-3-carboxamide], which activity at 10 µM is on record?
Answer: < 200%

Question: With COc1ccc2c(c1)c(C(=O)Nc1ccc(N3CCCCC3)cc1)nn2Cc1ccc(S(=O)(=O)N(C)OC)cc1 [Compound 8, 5-methoxy-1-(4-(N-methoxy-N-methylsulfamoyl)benzyl)-N-(4-(piperidin-1-yl)phenyl)-1H-indazole-3-carboxamide] as the molecule, how does the activity at 10 µM read?
Answer: < 200%

Question: COc1cccc(OC)c1NC(=O)Nc1nn(Cc2ccc(C(F)(F)F)cc2)c2ccccc12 [Compound 12, 1-(2,6-dimethoxyphenyl)-3-(1-(4-(trifluoromethyl)benzyl)-1H-indazol-3-yl)urea] was tested. Which activity at 10 µM did it give?
Answer: < 200%

Question: How did the activity at 10 µM turn out when CCc1ccc(Cn2nc(C(=O)Nc3ccc4c(c3)OC(F)(F)C(F)(F)O4)c3ccccc32)cc1 [Compound 159, 1-(4-ethylbenzyl)-N-(2,2,3,3-tetrafluoro-2,3-dihydrobenzo[b][1,4]dioxin-6-yl)-1H-indazole-3-carboxamide] was run?
Answer: < 200%

Question: How did the activity at 10 µM turn out when CS(=O)(=O)c1ccc(Cn2nc(C(=O)Nc3ccc4c(c3)CS(=O)(=O)C4)c3ccccc32)cc1 [Compound 113, N-(1,3-dihydrobenzo[c]thiophen-2,2-dioxy-5-yl)-1-(4-(methylsulfonyl)benzyl)-1H-indazole-3-carboxamide] was run?
Answer: < 200%

Question: With COc1ccc(OC)c(NC(=O)Nc2nn(Cc3ccc(COc4ccc5c(c4)OCO5)cc3)c3ccc(C(F)(F)F)cc23)c1 [Compound 2, 1-(1-(4-((benzo[d][1,3]dioxol-5-yloxy)methyl)benzyl)-5-(trifluoromethyl)-1H-indazol-3-yl)-3-(2,5-dimethoxyphenyl)urea] as the molecule, how does the activity at 10 µM read?
Answer: < 200%

Question: O=C(Nc1ccc2c(c1)OCO2)c1nn(Cc2ccc(C(F)(F)F)cc2)c2ccccc12 [Compound 115, N-(benzo[d][1,3]dioxol-5-yl)-1-(4-(trifluoromethyl)benzyl)-1H-indazole-3-carboxamide] was tested. Which activity at 10 µM did it give?
Answer: < 200%

Question: O=C(Nc1ccc2c(c1)OCCO2)c1nn(Cc2ccc(C(=O)N3CCOCC3)cc2)c2cc(C(F)(F)F)ccc12 [Compound 163, N-(2,3-dihydrobenzo[b][1,4]dioxin-6-yl)-1-(4-(morpholine-4-carbonyl)benzyl)-6-(trifluoromethyl)-1H-indazole-3-carboxamide] was tested. Which activity at 10 µM did it give?
Answer: < 200%

Question: CON(C)S(=O)(=O)c1ccc(Cn2nc(C(=O)Nc3nccs3)c3ccccc32)cc1 [Compound 36, 1-(4-(N-methoxy-N-methylsulfamoyl)benzyl)-N-(thiazol-2-yl)-1H-indazole-3-carboxamide] was tested. Which activity at 10 µM did it give?
Answer: < 200%

Question: Which activity at 10 µM does the source give for O=C(Nc1ccc2c(c1)OCCO2)c1nn(Cc2ccc(C(=O)N3CCOCC3)cc2)c2ccccc12 [Compound 143, N-(2,3-dihydrobenzo[b][1,4]dioxin-6-yl)-1-(4-(morpholine-4-carbonyl)benzyl)-1H-indazole-3-carboxamide] here?
Answer: 301 to 400%

Question: Which activity at 10 µM does the source give for CCc1ccc(Cn2nc(C(=O)Nc3ccc4c(c3)OCO4)c3ccccc32)nc1 [Compound 153, N-(benzo[d][1,3]dioxol-5-yl)-1-((5-ethylpyridin-2-yl)methyl)-1H-indazole-3-carboxamide] here?
Answer: < 200%

Question: With O=C(Nc1ccc(N2CCCCC2)cc1)c1nn(CCOc2ccc(F)cc2)c2ccccc12 [Compound 43, 1-(2-(4-fluorophenoxy)ethyl)-N-(4-(piperidin-1-yl)phenyl)-1H-indazole-3-carboxamide] as the molecule, how does the activity at 10 µM read?
Answer: < 200%

Question: For CON(C)S(=O)(=O)c1ccc(Cn2nc(C(=O)Nc3ccccn3)c3ccccc32)cc1 [Compound 49, 1-(4-(N-methoxy-N-methylsulfamoyl)benzyl)-N-(pyridin-2-yl)-1H-indazole-3-carboxamide], which activity at 10 µM is on record?
Answer: < 200%

Question: For COc1cccc(OCc2ccc(Cn3nc(NC(=O)Nc4ccc(OC)c(OC)c4)c4ccccc43)cc2)c1 [Compound 54, 1-(3,4-dimethoxyphenyl)-3-(1-(4-((3-methoxyphenoxy)methyl)benzyl)-1H-indazol-3-yl)urea], which activity at 10 µM is on record?
Answer: < 200%

Question: With CC(C)(C)c1ccc(Cn2nc(C(=O)Nc3ccc(N4CCCCC4)cc3)c3ccccc32)cc1 [Compound 79, 1-(4-tert-butylbenzyl)-N-(4-(piperidin-1-yl)phenyl)-1H-indazole-3-carboxamide] as the molecule, how does the activity at 10 µM read?
Answer: < 200%

Question: Which activity at 10 µM does the source give for CC(C)c1ccc(NC(=O)c2nn(Cc3ccc(C(=O)N(C)C)cc3)c3ccccc23)cc1 [Compound 139, 1-(4-(dimethylcarbamoyl)benzyl)-N-(4-isopropylphenyl)-1H-indazole-3-carboxamide] here?
Answer: < 200%

Question: CCN(CC)S(=O)(=O)c1ccc(Cn2nc(C(=O)Nc3nc4ccccc4s3)c3ccccc32)cc1 [Compound 7, N-(benzo[d]thiazol-2-yl)-1-(4-(N,N-diethylsulfamoyl)benzyl)-1H-indazole-3-carboxamide] was tested. Which activity at 10 µM did it give?
Answer: < 200%

Question: How did the activity at 10 µM turn out when COc1cccc(OCc2ccc(Cn3nc(NC(=O)NCc4ccccc4OC)c4ccccc43)cc2)c1 [Compound 44, 1-(2-methoxybenzyl)-3-(1-(4-((3-methoxyphenoxy)methyl)benzyl)-1H-indazol-3-yl)urea] was run?
Answer: < 200%

Question: Which activity at 10 µM does the source give for Cc1ccc(NC(=O)c2nn(Cc3ccc(S(C)(=O)=O)cc3)c3ccccc23)cc1C [Compound 104, N-(3,4-dimethylphenyl)-1-(4-(methylsulfonyl)benzyl)-1H-indazole-3-carboxamide] here?
Answer: 301 to 400%

Question: With COc1ccc(NC(=O)c2nn(Cc3ccc(C(=O)N4CCOCC4)cc3)c3ccccc23)cc1 [Compound 144, N-(4-methoxyphenyl)-1-(4-(morpholine-4-carbonyl)benzyl)-1H-indazole-3-carboxamide] as the molecule, how does the activity at 10 µM read?
Answer: 301 to 400%

Question: How did the activity at 10 µM turn out when CCc1ccc(Cn2nc(C(=O)Nc3ccc4c(c3)OCO4)c3ccccc32)cc1 [Compound 132, N-(benzo[d][1,3]dioxol-5-yl)-1-(4-ethylbenzyl)-1H-indazole-3-carboxamide] was run?
Answer: 201 to 300%

Question: With O=C(Nc1ccc2c(c1)OCO2)c1nn(CCOc2ccc(F)cc2)c2ccccc12 [Compound 46, N-(benzo[d][1,3]dioxol-5-yl)-1-(2-(4-fluorophenoxy)ethyl)-1H-indazole-3-carboxamide] as the molecule, how does the activity at 10 µM read?
Answer: < 200%

Question: With O=C(Nc1ccc2c(c1)OCO2)c1nn(Cc2cccc(C(=O)N3CCOCC3)c2)c2ccccc12 [Compound 100, N-(benzo[d][1,3]dioxol-5-yl)-1-(3-(morpholine-4-carbonyl)benzyl)-1H-indazole-3-carboxamide] as the molecule, how does the activity at 10 µM read?
Answer: < 200%

Question: How did the activity at 10 µM turn out when CC(C)c1nc(Cn2nc(C(=O)Nc3ccc4c(c3)OCO4)c3ccccc32)no1 [Compound 154, N-(benzo[d][1,3]dioxol-5-yl)-1-((5-isopropyl-1,2,4-oxadiazol-3-yl)methyl)-1H-indazole-3-carboxamide] was run?
Answer: < 200%

Question: For CCc1nnc(Cn2nc(C(=O)Nc3ccc4c(c3)OCO4)c3ccccc32)o1 [Compound 155], which activity at 10 µM is on record?
Answer: < 200%

Question: With COc1ccc(NC(=O)c2nn(Cc3ccc(S(C)(=O)=O)cc3)c3ccccc23)cc1OC [Compound 82, N-(3,4-dimethoxyphenyl)-1-(4-(methylsulfonyl)benzyl)-1H-indazole-3-carboxamide] as the molecule, how does the activity at 10 µM read?
Answer: < 200%

Question: Which activity at 10 µM does the source give for CCN(CC)S(=O)(=O)c1ccc(Cn2nc(C(=O)Nc3ccc4c(c3)C(=O)N(C)C4=O)c3ccccc32)cc1 [Compound 41, 1-(4-(N,N-diethylsulfamoyl)benzyl)-N-(2-methyl-1,3-dioxoisoindolin-5-yl)-1H-indazole-3-carboxamide] here?
Answer: < 200%

Question: With NC(=O)c1ccc(NC(=O)c2nn(Cc3ccc(C(=O)N4CCOCC4)cc3)c3ccccc23)cc1 [Compound 38, N-(4-carbamoylphenyl)-1-(4-(morpholine-4-carbonyl)benzyl)-1H-indazole-3-carboxamide] as the molecule, how does the activity at 10 µM read?
Answer: 201 to 300%

Question: How did the activity at 10 µM turn out when O=C(Nc1ccc2c(c1)OCO2)c1nn(Cc2ccc(S(=O)(=O)N3CCOCC3)cc2)c2ccccc12 [Compound 137, N-(benzo[d][1,3]dioxol-5-yl)-1-(4-(morpholinosulfonyl)benzyl)-1H-indazole-3-carboxamide] was run?
Answer: 201 to 300%

Question: For CS(=O)(=O)c1ccc(Cn2nc(C(=O)Nc3ccc(F)cc3)c3ccccc32)cc1 [Compound 94, N-(4-fluorophenyl)-1-(4-(methylsulfonyl)benzyl)-1H-indazole-3-carboxamide], which activity at 10 µM is on record?
Answer: < 200%

Question: COc1ccc(CCNC(=O)Nc2nn(Cc3ccc(C(F)(F)F)cc3)c3ccccc23)cc1OC [Compound 73, 1-(3,4-dimethoxyphenethyl)-3-(1-(4-(trifluoromethyl)benzyl)-1H-indazol-3-yl)urea] was tested. Which activity at 10 µM did it give?
Answer: < 200%

Question: How did the activity at 10 µM turn out when Cc1cnc(NC(=O)c2nn(Cc3ccc(S(C)(=O)=O)cc3)c3ccccc23)s1 [Compound 125, 1-(4-(methylsulfonyl)benzyl)-N-(5-methylthiazol-2-yl)-1H-indazole-3-carboxamide] was run?
Answer: < 200%

Question: How did the activity at 10 µM turn out when O=C(Nc1ccc2c(c1)OC(F)(F)O2)c1nn(Cc2ccc(C(=O)N3CCOCC3)cc2)c2ccccc12 [Compound 25, N-(2,2-difluorobenzo[d][1,3]dioxol-5-yl)-1-(4-(morpholine-4-carbonyl)benzyl)-1H-indazole-3-carboxamide] was run?
Answer: > 401%

Question: O=C(NCc1ccccc1F)Nc1nn(Cc2cc3c(cc2Cl)OCO3)c2ccccc12 [Compound 47, 1-(1-((6-chlorobenzo[d][1,3]dioxol-5-yl)methyl)-1H-indazol-3-yl)-3-(2-fluorobenzyl)urea] was tested. Which activity at 10 µM did it give?
Answer: < 200%

Question: With O=C(Nc1ccc2c(c1)CCC2)Nc1nn(Cc2ccc(C(F)(F)F)cc2)c2ccccc12 [Compound 53, 1-(2,3-dihydro-1H-inden-5-yl)-3-(1-(4-(trifluoromethyl)benzyl)-1H-indazol-3-yl)urea] as the molecule, how does the activity at 10 µM read?
Answer: < 200%
